Data published in US9526785B2, “Pharmaceuticals for oral delivery” (Enteris BioPharma, Inc., priority 2013, dated 2016).
Several values for one entry are separate records, joined by “and”; a condition that tells them apart may be missing. Identical values can stand only once.

Assay: Tigecycline plasma PK after IV bolus in dogs
Type: in vivo, Beagle dogs
Settings: for concentration at 10 min / concentration at 15 min / concentration at 20 min / concentration at 5 min / concentration at 30 min / concentration at 40 min / concentration at 60 min / concentration at 90 min / concentration at 120 min: female, dog, plasma, intravenous, 1 mg, Tigecycline Plasma Concentration; for concentration at 10 min / concentration at 15 min / concentration at 20 min: Beagle; for concentration at 5 min / concentration at 30 min / concentration at 40 min / concentration at 60 min / concentration at 90 min / concentration at 120 min: beagle
Procedure: Adult beagle dogs weighing approximately 9 to 15 kg were used in the study. […] Room temperature was set to be maintained between approximately 20±5° C. Relative humidity was monitored but not controlled.
TEKLAD™ Certified Canine Diet was provided once daily in amounts (˜400 grams) appropriate for the size and age of the animals. Tap water was available ad libitum via automatic watering device or water bowls.
Doses are expressed in terms of free net tigecycline content. […] Oral dosing of enteric-coated capsules was accomplished by administering them to the back of the dog's mouth, followed by a chase of 5 mL water to ensure swallowing.
Water was provided ad libitum. […] Subsequently, each group of animals was dosed based on the protocol, i.e. either IV, or PO by capsule.
Minocycline (VWR international) was used as an internal standard. Sample processing/clean-up of plasma samples was carried out offline by protein precipitation with acidified acetonitrile using 0.5% trifluoroacetic acid (TFA).
The HPLC system consisted of Shimadzu SIL-HTc HPLC system equipped with dual Shimadzu LC-10ADvp isopumps, a Shimadzu CTO-10ASvp column temperature controller and a Shimadzu SPD-10Avp variable wavelength detector. […] Mobile phase A consisted of 23 mM phosphate buffer pH 2.5 with 4 mM 1-octanesulfonic acid, while mobile phase B consisting of 90% acetonitrile, 10% water, with 2 mM 1-octanesulfonic acid. […] The total runtime was 18 minutes per sample. The mobile phase flow rate was 1.2 mL/min. Detection was performed using the SPD-10Avp variable wavelength detector set at 350 nm, with a sensitivity of 0.001 aufs.
The samples were then centrifuged under refrigeration at 13 k rpm for 5 minutes. The supernatant was taken and the liquid removed to dryness under nitrogen in a turbovap. The dried extract was reconstituted in 60 μL of mobile phase A and the suspension was further centrifuged at 5 k rpm for 5 minutes to pellet any insoluble matter. The resulting supernatant was then injected onto the LC.
The unknown concentration in dog plasma samples was determined by interpolation of the peak area ratios of analyte:internal standard versus the ratio of their nominal concentrations into the regression line obtained from calibration standards spiked in pooled dog plasma. No regression weighting was used for the calculations. […] The calibration curve covered the range of 0.05 μg/mL to 5 μg/mL.
It should be noted however, that when the method was transferred to an older HPLC system (equipped with a Shimadzu SCT-10Avp system controller and SIL-10A autoinjector), the time program was further altered such that the gradient went to 38% mobile phase B to account to system design changes. All other parameters remained unchanged.
Tigecycline PK parameters for individual dogs were calculated using non-compartmental analysis with PK Functions for Microsoft Excel.

[1] = 1 mg IV in PBS (0.08 mg/kg), SC427, individual dogs
[2] = 5 min, 1 mg IV in PBS (0.08 mg/kg), SC427, individual dogs
[3] = 10 min, 1 mg IV in PBS (0.08 mg/kg), SC427, individual dogs
[4] = 15 min, 1 mg IV in PBS (0.08 mg/kg), SC427, individual dogs
[5] = 20 min, 1 mg IV in PBS (0.08 mg/kg), SC427, individual dogs
[6] = 30 min, 1 mg IV in PBS (0.08 mg/kg), SC427, individual dogs
[7] = 40 min, 1 mg IV in PBS (0.08 mg/kg), SC427, individual dogs
[8] = 60 min, 1 mg IV in PBS (0.08 mg/kg), SC427, individual dogs
[9] = 90 min, 1 mg IV in PBS (0.08 mg/kg), SC427, individual dogs
[10] = 120 min, 1 mg IV in PBS (0.08 mg/kg), SC427, individual dogs

CN(C)c1cc(NC(=O)CNC(C)(C)C)c(O)c2c1C[C@H]1C[C@H]3[C@H](N(C)C)C(O)=C(C(N)=O)C(=O)[C@@]3(O)C(O)=C1C2=O [Tigecycline]
AUC(0-t) [1]: 61.40 ng·h/mL and 99.54 ng·h/mL | Cmax [1]: 66.27 ng/mL and 85.18 ng/mL | Tmax [1]: 5 min | Tmax (1 mg IV in PBS (0.08 mg/kg), SC427, mean): 5 min | Tmax (5 mg IV in PBS ([…]), SC431, individual dogs): 5 min | Tmax (5 mg IV in PBS ([…]), SC431, mean): 5 min | Tigecycline Plasma Concentration [2]: 66.27 ng/mL and 85.18 ng/mL | Tigecycline Plasma Concentration [3]: 23.92 ng/mL and 33.00 ng/mL | Tigecycline Plasma Concentration [4]: 19.85 ng/mL and 20.60 ng/mL | Tigecycline Plasma Concentration [5]: 21.11 ng/mL and 29.60 ng/mL | Tigecycline Plasma Concentration [6]: 17.14 ng/mL and 13.86 ng/mL | Tigecycline Plasma Concentration [7]: 11.51 ng/mL and 21.58 ng/mL | Tigecycline Plasma Concentration [8]: 12.49 ng/mL and 14.50 ng/mL | Tigecycline Plasma Concentration [9]: 8.90 ng/mL and 13.98 ng/mL | Tigecycline Plasma Concentration [10]: 8.80 ng/mL and 12.96 ng/mL | Tigecycline Plasma Concentration (360 min, 1 mg IV in PBS (0.08 mg/kg), SC427, individual dogs): 0.00 ng/mL (2×) and 3.45 ng/mL | Cmax, Mean (IV bolus 1 mg (0.08 mg/kg), SC427): 79 ng/mL | Tmax (IV, Study 1 (SC427), 1 mg (0.08 mg/kg), mean (% CV)): 5 (0) min | concentration at 10 min [3]: 38.8 ng/mL | concentration at 10 min (10 min, 1 mg IV in PBS (0.08 mg/kg), SC427, mean): 31.9 ng/mL | concentration at 15 min [4]: 26.5 ng/mL | concentration at 15 min (15 min, 1 mg IV in PBS (0.08 mg/kg), SC427, mean): 22.3 ng/mL | concentration at 20 min [5]: 27.7 ng/mL | concentration at 20 min (20 min, 1 mg IV in PBS (0.08 mg/kg), SC427, mean): 26.1 ng/mL | concentration at 5 min [2]: 86 ng/mL | concentration at 5 min (5 min, 1 mg IV in PBS (0.08 mg/kg), SC427, mean): 79.1 ng/mL | concentration at 30 min [6]: 17.6 ng/mL | concentration at 30 min (30 min, 1 mg IV in PBS (0.08 mg/kg), SC427, mean): 16.2 ng/mL | concentration at 40 min [7]: 14.3 ng/mL | concentration at 40 min (40 min, 1 mg IV in PBS (0.08 mg/kg), SC427, mean): 15.8 ng/mL | concentration at 60 min [8]: 13.5 ng/mL | concentration at 60 min (60 min, 1 mg IV in PBS (0.08 mg/kg), SC427, mean): 13.5 ng/mL | concentration at 90 min [9]: 11.2 ng/mL | concentration at 90 min (90 min, 1 mg IV in PBS (0.08 mg/kg), SC427, mean): 11.4 ng/mL | concentration at 120 min [10]: 11.6 ng/mL | concentration at 120 min (120 min, 1 mg IV in PBS (0.08 mg/kg), SC427, mean): 11.1 ng/mL
